Assay results reported in patent EP2638113B1, “THIOPHENE AZO DYES AND LAUNDRY CARE COMPOSITIONS CONTAINING THE SAME” (Milliken & Company, priority 2010, dated 2011).

Experiment: Aqueous partition value of a dye (water/1-octanol partitioning, absorbance at λmax)
Format: physicochemical
Conditions: Aqueous Partition Value (APV) = (Af/Ai) × 100%, deionized water / 1-octanol, 10.0 mL each
Procedure: • I. Method for Determining the Aqueous Partition Value of a Dye Dissolve in deionized water to a final volume of 10.0 mL an amount of dye sufficient to provide a solution absorbance value between 0.25 and 1.0, said absorbance being determined at the dye λmax between 400 nm and 750 nm, using a cuvette with 1.0 cm path length. Measure the absorbance of the sample at the dye λmax in a UV/Vis spectrophotometer, then transfer the entire 10.0 mL solution to a 50.0 mL plastic centrifuge tube. Add 10.0 mL of 1-octanol, cap the tube, and mix vigorously for 30 seconds using a Vortex™ mixer. Leave the tube standing undisturbed until the layers cleanly phase separate. […] Analyze the solution as before, and quantify the absorbance loss at λmax as "% of Dye Remaining in Aqueous Layer" as detailed below: % of Dye Remaining in Aqueous Layer = Aqueous Partition Value (APV) = (Af/Ai) × 100% [formula] wherein Ai is the initial solution absorbance at λmax and Af is the final solution absorbance at λmax. • II. […] After such washing step separately rinse the swatches in tap water and air dry the swatches in the dark. • e.) After rinsing and drying each swatch, the hueing efficiency, DE*eff, of the dye is assessed by determining the L*, a*, and b* value measurements of each swatch using a Hunter LabScan XE reflectance spectrophotometer with D65 illumination, 10° observer and UV filter excluded. […]

% Dye in Water Layer [%]	SMILES
20	CCN(CCOCCOCCOCCOCCn1cc[n+](C)c1)c1ccc(/N=N/c2sc(C#N)c(C)c2C#N)c(C)c1 [Example 13]
3	CCN(CCOCCOCCOCCOCC[N+](C)(C)CCCS(=O)(=O)[O-])c1ccc(/N=N/c2sc(C#N)c(C)c2C#N)c(C)c1 [Example 15]
